In PubChem BioAssay (NCI):
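In this assay, cells in 96-well plates receive the compound at five concentrations for 48 hours. Endpoints are linearly interpolated between the surrounding concentrations. At the TGI there is no net growth.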

Assays:
Test in all cases: growth of human tumour cells (NCI), 48 h
NCI-H460 lung = test system: NCI-H460 lung
ACHN renal = test system: ACHN renal
CAKI-1 renal = test system: CAKI-1 renal
EKVX NSCLC = test system: EKVX NSCLC
SNB-75 CNS = test system: SNB-75 CNS
DMS 114 small cell lung = test system: DMS 114 small cell lung
LXFL 529 NSCLC = test system: LXFL 529 NSCLC
NCI-H226 lung = test system: NCI-H226 lung
HL-60(TB) leukemia = test system: HL-60(TB) leukemia
OVCAR-3 ovarian = test system: OVCAR-3 ovarian
MALME-3M melanoma = test system: MALME-3M melanoma
KM20L2 colon = test system: KM20L2 colon
K-562 leukemia = test system: K-562 leukemia
NCI-H23 lung = test system: NCI-H23 lung
UACC-62 melanoma = test system: UACC-62 melanoma
SR leukemia = test system: SR leukemia
COLO 205 colon = test system: COLO 205 colon
LOX IMVI melanoma = test system: LOX IMVI melanoma
M19-MEL melanoma = test system: M19-MEL melanoma
SK-OV-3 ovarian = test system: SK-OV-3 ovarian
MOLT-4 leukemia = test system: MOLT-4 leukemia
A498 renal = test system: A498 renal
HT29 colon = test system: HT29 colon
SF-539 CNS = test system: SF-539 CNS
TK-10 renal = test system: TK-10 renal
HCT-116 colon = test system: HCT-116 colon
SN12C renal = test system: SN12C renal
OVCAR-4 ovarian = test system: OVCAR-4 ovarian
OVCAR-8 ovarian = test system: OVCAR-8 ovarian
KM12 colon = test system: KM12 colon
M14 melanoma = test system: M14 melanoma
RXF 393 renal = test system: RXF 393 renal
U251 CNS = test system: U251 CNS
HOP-18 NSCLC = test system: HOP-18 NSCLC
786-0 renal = test system: 786-0 renal
HOP-92 NSCLC = test system: HOP-92 NSCLC
OVCAR-5 ovarian = test system: OVCAR-5 ovarian
SF-295 CNS = test system: SF-295 CNS
XF 498 CNS = test system: XF 498 CNS
UACC-257 melanoma = test system: UACC-257 melanoma
IGROV1 ovarian = test system: IGROV1 ovarian
UO-31 renal = test system: UO-31 renal
NCI-H522 lung = test system: NCI-H522 lung
SK-MEL-28 melanoma = test system: SK-MEL-28 melanoma
SW-620 colon = test system: SW-620 colon
CCRF-CEM leukemia = test system: CCRF-CEM leukemia
SK-MEL-2 melanoma = test system: SK-MEL-2 melanoma
SNB-19 CNS = test system: SNB-19 CNS
HOP-62 NSCLC = test system: HOP-62 NSCLC
HCC-2998 colon = test system: HCC-2998 colon
A549 NSCLC = test system: A549 NSCLC
SF-268 CNS = test system: SF-268 CNS
DMS 273 small cell lung = test system: DMS 273 small cell lung
HCT-15 colon = test system: HCT-15 colon
DLD-1 colon = test system: DLD-1 colon
SNB-78 CNS = test system: SNB-78 CNS
SK-MEL-5 melanoma = test system: SK-MEL-5 melanoma
RPMI-8226 leukemia = test system: RPMI-8226 leukemia

Measured: TGI

CC1(C)OC(C(N)=O)=C(C(N)=O)O1
not listed: SNB-78 CNS | SK-MEL-5 melanoma | RPMI-8226 leukemia
> 100 µM: all other assays above

CCOc1ccccc1N=Nc1c(-c2ccccc2)nn(C(=O)CC(=O)Nc2cccc(Cl)c2)c1-c1ccccc1
not listed: A498 renal | HCT-15 colon
> 100 µM: all other assays above
